Experimental data reported in PubChem BioAssay AID330 (DTP/NCI, 2004).
Several values for one entry are separate records, joined by “and”; a condition that tells them apart may be missing. Equal values may be shown once. Inconclusive results and toxic doses are left out.

System: P388 leukemia ip, CD2F1 mice, survival T/C
Assay: NCI In Vivo Anticancer Drug Screen. Data for tumor model P388 Leukemia (intraperitoneal) in CD2F1 (CDF1) mice
Conditions: endpoint: median survival time, higher = longer survival
Summary of the method: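 Mice carrying the transplanted tumor received test compound or vehicle. Survival was recorded in each group, and the value is the treated-group measurement divided by that of the vehicle-treated control group.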

[1] = dose: 50.0 mg/kg/injection, schedule: Q01DX009 (ip), vehicle: Klucel (hydroxypropylcellulose) (HPC)
[2] = dose: 100.0 mg/kg/injection, schedule: Q01DX009 (ip), vehicle: Klucel (hydroxypropylcellulose) (HPC)
[3] = dose: 200.0 mg/kg/injection, schedule: Q01DX009 (ip), vehicle: Klucel (hydroxypropylcellulose) (HPC)
[4] = dose: 50.0 mg/kg/injection, schedule: Q01DX005 (ip), vehicle: Klucel (hydroxypropylcellulose) (HPC)
[5] = dose: 100.0 mg/kg/injection, schedule: Q01DX005 (ip), vehicle: Klucel (hydroxypropylcellulose) (HPC)
[6] = dose: 60.0 mg/kg/injection, schedule: Q01DX005 (ip), vehicle: saline with Tween-80
[7] = dose: 100.0 mg/kg/injection, schedule: Q01DX001 (ip), vehicle: Klucel (hydroxypropylcellulose) (HPC)
[8] = dose: 200.0 mg/kg/injection, schedule: Q01DX001 (ip), vehicle: Klucel (hydroxypropylcellulose) (HPC)
[9] = dose: 25.0 mg/kg/injection, schedule: Q01DX001 (ip), vehicle: saline with Tween-80
[10] = dose: 50.0 mg/kg/injection, schedule: Q01DX001 (ip), vehicle: saline with Tween-80
[11] = dose: 100.0 mg/kg/injection, schedule: Q01DX001 (ip), vehicle: saline with Tween-80
[12] = dose: 50.0 mg/kg/injection, schedule: Q01DX009 (ip), vehicle: saline with Tween-80
[13] = dose: 100.0 mg/kg/injection, schedule: Q01DX009 (ip), vehicle: saline with Tween-80
[14] = dose: 200.0 mg/kg/injection, schedule: Q01DX009 (ip), vehicle: saline with Tween-80
[15] = dose: 200.0 mg/kg/injection, schedule: Q01DX005 (ip), vehicle: Klucel (hydroxypropylcellulose) (HPC)
[16] = dose: 7.5 mg/kg/injection, schedule: Q01DX005 (ip), vehicle: saline
[17] = dose: 15.0 mg/kg/injection, schedule: Q01DX005 (ip), vehicle: saline

With `COC(=O)Nc1nc2ccc(C(=O)c3ccccc3)cc2[nH]1` the T/C (dose: 2.0 mg/kg/injection, schedule: Q04DX003 (ip), vehicle: saline with Tween-80) was 100 % of control, the T/C (dose: 4.0 mg/kg/injection, schedule: Q04DX003 (ip), vehicle: saline with Tween-80) was 100 % of control and the T/C (dose: 8.0 mg/kg/injection, schedule: Q04DX003 (ip), vehicle: saline with Tween-80) was 113 % of control. For the same compound, the T/C (dose: 16.0 mg/kg/injection, schedule: Q04DX003 (ip), vehicle: saline with Tween-80) was 118 % of control, the T/C (dose: 32.0 mg/kg/injection, schedule: Q04DX003 (ip), vehicle: saline with Tween-80) was 202 % of control and the T/C (dose: 64.0 mg/kg/injection, schedule: Q04DX003 (ip), vehicle: saline with Tween-80) was 190 % of control. For the same compound, the T/C (dose: 80.0 mg/kg/injection, schedule: Q04DX003 (ip), vehicle: other) was 192 % of control, the T/C (dose: 80.0 mg/kg/injection, schedule: Q04DX003 (oral), vehicle: other) was 112 % of control and 113 % of control and the T/C (dose: 80.0 mg/kg/injection, schedule: Q04DX003 (oral), vehicle: saline) was 98 % of control. The T/C (dose: 320.0 mg/kg/injection, schedule: Q04DX003 (oral), vehicle: saline) was 115 % of control and the T/C (dose: 1280.0 mg/kg/injection, schedule: Q04DX003 (oral), vehicle: saline) was 165 % of control.
`NC(CSCC(=O)O)C(=O)O` (centres undefined) was tested, and the T/C (dose: 25.0 mg/kg/injection, schedule: Q01DX009 (ip), vehicle: Klucel (hydroxypropylcellulose) (HPC)) was 95 % of control, the T/C [1] was 111 % of control and the T/C [2] was 105 % of control. For the same compound, the T/C [3] was 98 % of control.
With `C=C1C(=O)C23C(OC(=O)c4ccc(Br)cc4)C1CCC2C12COC3(O)C(O)C1C(C)(C)CCC2O` (centres undefined) the T/C (dose: 3.75 mg/kg/injection, schedule: Q01DX009 (ip), vehicle: saline with Tween-80) was 105 % of control and 106 % of control, the T/C (dose: 7.5 mg/kg/injection, schedule: Q01DX009 (ip), vehicle: saline with Tween-80) was 105 % of control and 111 % of control and the T/C (dose: 15.0 mg/kg/injection, schedule: Q01DX009 (ip), vehicle: saline with Tween-80) was 111 % of control and 120 % of control. The T/C (dose: 30.0 mg/kg/injection, schedule: Q01DX009 (ip), vehicle: saline with Tween-80) was 119 % of control.
In the case of `O=C1NC(=S)NC(=O)C1=Cc1cccc2cc3ccccc3cc12`, the T/C (dose: 25.0 mg/kg/injection, schedule: Q01DX005 (ip), vehicle: Klucel (hydroxypropylcellulose) (HPC)) is reported as 100 % of control, the T/C [4] is reported as 89 % of control and the T/C [5] is reported as 95 % of control.
In the case of `O=c1oc2cc(O)ccc2cc1-c1nc2ccccc2o1`, the T/C [6] is reported as 97 % of control, the T/C (dose: 120.0 mg/kg/injection, schedule: Q01DX005 (ip), vehicle: saline with Tween-80) is reported as 98 % of control and the T/C (dose: 240.0 mg/kg/injection, schedule: Q01DX005 (ip), vehicle: saline with Tween-80) is reported as 96 % of control.
For `NC(=S)N/N=C/c1c(Br)n(-c2ccccc2)c2ccccc12`, the T/C [7] was 94 % of control, the T/C [8] was 98 % of control and the T/C (dose: 400.0 mg/kg/injection, schedule: Q01DX001 (ip), vehicle: Klucel (hydroxypropylcellulose) (HPC)) was 91 % of control.
`Cc1cnn(C(C(=O)c2ccccc2)c2ccccc2)c1-c1ccccc1` (centres undefined) was tested, and the T/C [1] was 105 % of control, the T/C [2] was 105 % of control and the T/C [3] was 98 % of control.
`N#CCCn1nc(SC2CCCCC2)c(=O)[nH]c1=O` was tested, and the T/C (dose: 25.0 mg/kg/injection, schedule: Q01DX005 (ip), vehicle: water) was 108 % of control, the T/C (dose: 50.0 mg/kg/injection, schedule: Q01DX005 (ip), vehicle: water) was 103 % of control and the T/C (dose: 100.0 mg/kg/injection, schedule: Q01DX005 (ip), vehicle: water) was 98 % of control. For the same compound, the T/C (dose: 200.0 mg/kg/injection, schedule: Q01DX005 (ip), vehicle: water) was 108 % of control.
In the case of `NC(N)=NS(=O)(=O)c1ccc(N2C(=O)CC3(CCCC3)C2=O)cc1`, the T/C [1] is reported as 99 % of control, the T/C [2] is reported as 98 % of control and the T/C [3] is reported as 112 % of control.
`COc1cc(/C=C2\C(=O)C3CCN2CC3)cc(OC)c1OC` was tested, and the T/C [1] was 96 % of control, the T/C [2] was 93 % of control and the T/C [3] was 114 % of control.
`c1ccc(N[n+]2ccc3ccccc3c2)cc1` was tested, and the T/C (dose: 6.25 mg/kg/injection, schedule: Q01DX009 (ip), vehicle: distilled water + alcohol) was 104 % of control, the T/C (dose: 12.5 mg/kg/injection, schedule: Q01DX009 (ip), vehicle: distilled water + alcohol) was 104 % of control and the T/C (dose: 25.0 mg/kg/injection, schedule: Q01DX009 (ip), vehicle: distilled water + alcohol) was 102 % of control.
`CCOC(=O)Nc1cc2c(c(N)n1)N=C(c1ccccc1)CN2C` was tested, and the T/C (dose: 12.5 mg/kg/injection, schedule: Q01DX001 (ip), vehicle: saline with Tween-80) was 111 % of control, the T/C [9] was 101 % of control and the T/C [10] was 111 % of control and 97 % of control. The T/C [11] was 112 % of control and the T/C (dose: 200.0 mg/kg/injection, schedule: Q01DX001 (ip), vehicle: saline with Tween-80) was 106 % of control.
`Cc1ccc(S(=O)(=O)Sc2nnnn2-c2ccccc2)cc1` was tested, and the T/C [1] was 97 % of control, the T/C [2] was 103 % of control and the T/C [3] was 97 % of control.
`N#Cc1[nH]ncc1[N+](=O)[O-]` was tested, and the T/C [9] was 100 % of control, the T/C [10] was 106 % of control and the T/C [11] was 101 % of control.
For `CC(C)CCCC(C)C1CCC2C3CCC4CC(=O)C(C5(O)C(=O)Nc6ccccc65)CC4(C)C3CCC12C` (centres undefined), the T/C (dose: 6.25 mg/kg/injection, schedule: Q01DX009 (ip), vehicle: Klucel (hydroxypropylcellulose) (HPC)) was 95 % of control, the T/C (dose: 12.5 mg/kg/injection, schedule: Q01DX009 (ip), vehicle: Klucel (hydroxypropylcellulose) (HPC)) was 95 % of control and the T/C [3] was 90 % of control.
`CCN(CC)CCN1C(=O)[C@H]2CC=CC[C@H]2C1=O` was tested, and the T/C (dose: 50.0 mg/kg/injection, schedule: Q01DX005 (ip), vehicle: saline) was 99 % of control, the T/C (dose: 100.0 mg/kg/injection, schedule: Q01DX005 (ip), vehicle: saline) was 105 % of control and the T/C (dose: 200.0 mg/kg/injection, schedule: Q01DX005 (ip), vehicle: saline) was 97 % of control.
With `O=C(C=C(C(F)(F)F)C(F)(F)F)c1cccc([N+](=O)[O-])c1` the T/C (dose: 6.25 mg/kg/injection, schedule: Q04DX003 (ip), vehicle: saline with Tween-80) was 104 % of control, the T/C (dose: 12.5 mg/kg/injection, schedule: Q04DX003 (ip), vehicle: saline with Tween-80) was 104 % of control and the T/C (dose: 25.0 mg/kg/injection, schedule: Q04DX003 (ip), vehicle: saline with Tween-80) was 100 % of control.
In the case of `[I][Ga]([I])[I]`, the T/C (dose: 25.0 mg/kg/injection, schedule: Q01DX009 (ip), vehicle: saline with Tween-80) is reported as 116 % of control, the T/C [12] is reported as 111 % of control and the T/C [13] is reported as 100 % of control. For the same compound, the T/C (dose: 100.0 mg/kg/injection, schedule: Q04DX003 (ip), vehicle: saline sonified) was 100 % of control.
`CC(C)C(C(=O)O)N(C(=O)CN)C(=O)Cc1ccccc1` (centres undefined) was tested, and the T/C [12] was 95 % of control, the T/C [13] was 93 % of control and the T/C [14] was 93 % of control.
In the case of `CC(=O)N=c1c(Br)cc(Br)c(C)n1O`, the T/C [4] is reported as 93 % of control, the T/C [5] is reported as 99 % of control and the T/C [15] is reported as 102 % of control.
For `Cc1ccc(S(=O)(=O)NN=C2C3CCC2CC3)cc1`, the T/C [12] was 111 % of control, the T/C [13] was 108 % of control and the T/C [14] was 118 % of control.
`O=c1nc2oc(-c3ccccc3)cn2c(=O)n1-c1ncc(-c2ccccc2)o1` was tested, and the T/C [4] was 97 % of control, the T/C [5] was 100 % of control and the T/C [15] was 105 % of control.
With `Cn1c(Cl)c(/C=N\Nc2ccc([N+](=O)[O-])cc2)c2ccccc21` the T/C (dose: 50.0 mg/kg/injection, schedule: Q01DX001 (ip), vehicle: Klucel (hydroxypropylcellulose) (HPC)) was 89 % of control, the T/C [7] was 89 % of control and the T/C [8] was 100 % of control.
For `COc1ccccc1N=NNc1ccc(S(=O)(=O)NC(C)=O)cc1`, the T/C [4] was 107 % of control and the T/C [5] was 114 % of control.
In the case of `CN=C(N)N/N=C(\C)c1ccc2sc3ccccc3c2c1`, the T/C (dose: 25.0 mg/kg/injection, schedule: Q04DX002 (ip), vehicle: saline with Tween-80) is reported as 104 % of control, the T/C (dose: 50.0 mg/kg/injection, schedule: Q04DX002 (ip), vehicle: saline with Tween-80) is reported as 106 % of control and the T/C (dose: 100.0 mg/kg/injection, schedule: Q04DX002 (ip), vehicle: saline with Tween-80) is reported as 107 % of control.
For `COC1=CC(=O)C(OC)=C(C2C(=O)N(C)c3ccccc32)C1=O` (centres undefined), the T/C [16] was 111 % of control, the T/C [17] was 121 % of control and the T/C [6] was 117 % of control.
In the case of `COC(=O)C1(F)C(=O)NC(=O)NC1O` (centres undefined), the T/C [16] is reported as 100 % of control, the T/C [17] is reported as 102 % of control and the T/C (dose: 30.0 mg/kg/injection, schedule: Q01DX005 (ip), vehicle: saline) is reported as 100 % of control.
